This is an account of results in patent publication US6664268B1, “Crystal modification B of 8-cyano-1-cyclopropyl-7-(1S,6S-2, 8-diazabicyclo[4.3.0]nonan-8-yl)-6-fluoro-1,4-dihydro-4-oxo-3-quinolinecarboxylic acid” (Bayer Aktiengesellschaft, priority 1998, dated 2003).

Data set [1] can be described thus: Water absorption at 95% relative atmospheric humidity. It is filed as physicochemical. To be noted: relative atmospheric humidity of 95% (saturated solution of Na2HPO4×12 H2O with sediment in water), within one day. From the text:
At a relative atmospheric humidity of 95% (established using a saturated solution of Na2HPO4×12 H2O with sediment in water), the solid obtained according to this procedure absorbs approximately 17% by weight of water within one day.
At a relative atmospheric humidity of 95% (established using a saturated solution of Na2HPO4×12 H2O with sediment in water), the solid obtained according to this procedure absorbs approximately 1% by weight of water within one day.

Data set [2] in a line: Storage stability of the crystal modification. In kind it is physicochemical. From the text: In addition, compared with amorphous CCDC, the modification B tends to absorb less water from the atmosphere. For these reasons, it is highly suitable for preparing tablets or other solid formulations. Owing to its stability, it gives these formulations the desired long-lasting storage stability. Using the crystal modification B, it is therefore possible to prepare, in a defined and targeted manner, stable solid preparations of CCDC.

For the molecule `N#Cc1c(N2C[C@@H]3CCCN[C@@H]3C2)c(F)cc2c(=O)c(C(=O)O)cn(C3CC3)c12` [Comparative Example, 8-cyano-1-cyclopropyl-7-(1 S,6S-2,8-diazabicyclo[4.3.0]nonan-8-yl)-6-fluoro-1,4-dihydro-4-oxo-3-quinolinecarboxylic acid, reference compound], the “water absorbed by the solid” value in data set [1] was “approximately 17 % by weight”.

As to `N#Cc1c(N2C[C@@H]3CCCN[C@@H]3C2)c(F)cc2c(=O)c(C(=O)O)cn(C3CC3)c12` [Example 1, 8-cyano-1-cyclopropyl-7-(1 S,6S-2,8-diazabicyclo[4.3.0]nonan-8-yl)-6-fluoro-1,4-dihydro-4-oxo-3-quinolinecarboxylic acid], the “water absorbed by the solid” value in data set [1] is recorded as “approximately 1 % by weight”. Also, the “stability of crystal modification on prolonged storage” value in data set [2] was “does not change into another crystal modification or the amorphous form”.
